From ChEMBL document CHEMBL4616628, “Unexpected small molecules as novel SIRT2 suicide inhibitors” (Bioorg Med Chem, 2020) come the findings set out here.

pIC50: −log10 of the molar value. Calls of active or inactive are those of the source. The calls are words filed in the database; no cut-off is given here. Some results are limits rather than exact numbers.

The target of experiment [1] is NAD-dependent protein deacylase sirtuin-5, mitochondrial (Homo sapiens, UniProt Q9NXA8). The experiment can be described thus: Inhibition of SIRT5 desuccinylation activity (unknown origin) using H3K9Su (4 to 15 residues) as substrate by HPLC analysis.
In experiment [2] the target is T1, NAD-dependent protein deacetylase sirtuin-1 (Homo sapiens, UniProt Q96EB6).
T1 sequence (Q96EB6 whole entry): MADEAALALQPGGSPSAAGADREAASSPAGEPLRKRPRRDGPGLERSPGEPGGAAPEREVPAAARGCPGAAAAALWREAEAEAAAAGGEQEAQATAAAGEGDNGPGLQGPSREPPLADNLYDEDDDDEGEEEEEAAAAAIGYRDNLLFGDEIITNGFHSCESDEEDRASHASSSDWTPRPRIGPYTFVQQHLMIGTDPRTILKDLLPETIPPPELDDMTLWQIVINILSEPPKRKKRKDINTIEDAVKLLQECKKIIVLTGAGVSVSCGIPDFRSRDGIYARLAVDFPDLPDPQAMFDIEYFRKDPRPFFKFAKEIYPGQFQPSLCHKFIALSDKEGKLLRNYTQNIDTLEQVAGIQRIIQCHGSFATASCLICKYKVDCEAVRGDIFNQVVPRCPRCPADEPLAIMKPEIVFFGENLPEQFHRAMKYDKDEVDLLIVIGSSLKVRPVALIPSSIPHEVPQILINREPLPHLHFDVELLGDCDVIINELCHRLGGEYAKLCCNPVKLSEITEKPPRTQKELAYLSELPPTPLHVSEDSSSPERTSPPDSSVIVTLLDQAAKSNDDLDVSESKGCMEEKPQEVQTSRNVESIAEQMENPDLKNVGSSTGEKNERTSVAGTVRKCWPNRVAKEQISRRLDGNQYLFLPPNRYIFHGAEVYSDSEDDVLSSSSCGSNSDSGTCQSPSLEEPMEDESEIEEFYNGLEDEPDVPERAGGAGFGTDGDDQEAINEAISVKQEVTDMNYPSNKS
Nature of the experiment: Inhibition of SIRT1 deacetylation activity (unknown origin) using H3K9Ac (4 to 15 residues) as substrate by HPLC analysis.

In experiment [3] the target is T2, NAD-dependent protein deacetylase sirtuin-2 (Homo sapiens, UniProt Q8IXJ6).
T2 sequence (Q8IXJ6 whole entry): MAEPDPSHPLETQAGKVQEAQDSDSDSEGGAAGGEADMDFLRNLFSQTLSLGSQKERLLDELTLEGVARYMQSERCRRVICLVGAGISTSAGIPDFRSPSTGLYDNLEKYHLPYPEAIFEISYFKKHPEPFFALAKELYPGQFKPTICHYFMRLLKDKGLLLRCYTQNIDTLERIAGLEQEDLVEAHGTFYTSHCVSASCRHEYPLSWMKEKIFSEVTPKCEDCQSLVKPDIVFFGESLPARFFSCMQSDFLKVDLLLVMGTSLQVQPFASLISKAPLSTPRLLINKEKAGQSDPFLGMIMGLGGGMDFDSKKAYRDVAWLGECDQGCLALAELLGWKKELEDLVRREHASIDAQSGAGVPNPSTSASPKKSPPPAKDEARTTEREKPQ
Nature of the experiment: Inhibition of SIRT2 deacetylation activity (unknown origin) using H3K9Ac ( 4 to 15 residues) as substrate by HPLC analysis.

Experiment [4] deals with T3, NAD-dependent protein deacetylase sirtuin-3, mitochondrial (Homo sapiens, UniProt Q9NTG7).
T3 sequence (Q9NTG7 whole entry): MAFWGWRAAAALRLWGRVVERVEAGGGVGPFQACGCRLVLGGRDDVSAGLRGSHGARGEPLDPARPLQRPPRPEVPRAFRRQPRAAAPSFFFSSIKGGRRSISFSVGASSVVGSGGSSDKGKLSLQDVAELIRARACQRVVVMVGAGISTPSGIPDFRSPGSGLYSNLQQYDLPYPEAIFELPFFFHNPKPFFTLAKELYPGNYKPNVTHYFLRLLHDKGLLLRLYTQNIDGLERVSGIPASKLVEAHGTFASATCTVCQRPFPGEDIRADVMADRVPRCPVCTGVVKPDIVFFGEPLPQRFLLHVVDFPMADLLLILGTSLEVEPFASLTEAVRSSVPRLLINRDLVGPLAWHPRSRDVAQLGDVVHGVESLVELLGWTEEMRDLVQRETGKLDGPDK
Nature of the experiment: Inhibition of SIRT3 deacetylation activity (unknown origin) using H3K9Ac (4 to 15 residues) as substrate by HPLC analysis.

The target in experiment [5] is T2, NAD-dependent protein deacetylase sirtuin-2. The experiment can be described thus: Inhibition of SIRT2 deacetylation activity (unknown origin) using H4K8Ac (3 to 13 residues) as substrate by HPLC analysis.
The target is the same in experiment [6]. Nature of the experiment: Inhibition of SIRT2 defatty-acylation activity (unknown origin) using H4K8-Myr (3 to 13 residues) as substrate by HPLC analysis.
Experiment [7] shares this target. Nature of the experiment: Inhibition of SIRT2 debenzoylation activity (unknown origin) using benzoylated histone H4K8 peptide (3 to 13 residues ) as substrate by HPLC analysis.
Experiment [8] is filed under the species Homo sapiens. Nature of the experiment: Selectivity ratio of IC50 for inhibition of SIRT1 deacetylation activity (unknown origin) to IC50 for inhibition of SIRT2 deacetylation activity (unknown origin).
The species named for experiment [9] is Homo sapiens. Nature of the experiment: Selectivity ratio of IC50 for inhibition of SIRT3 deacetylation activity (unknown origin) to IC50 for inhibition of SIRT2 deacetylation activity (unknown origin).
The species entered for experiment [10] is Homo sapiens. The experiment can be described thus: Selectivity ratio of IC50 for inhibition of SIRT5 desuccinylation activity (unknown origin) to IC50 for inhibition of SIRT2 deacetylation activity (unknown origin).
For experiment [11], the target named is T4, NAD-dependent protein deacetylase sirtuin-2 (Homo sapiens) (UniProt Q8IXJ6).
T4 sequence (whole entry): T2 sequence (Q8IXJ6 whole entry)
The experiment can be described thus: Inhibition of SIRT2 deacetylation activity (unknown origin) assessed as increase in substrate apparent Km at 2 uM using H4K8Ac (3 to 13 residues) as substrate.

Experiment [12] addresses T4, NAD-dependent protein deacetylase sirtuin-2 (Homo sapiens). Nature of the experiment: Irreversible inhibition of SIRT2 deacetylation activity (unknown origin) up to 40 uM using H4K8Ac (3 to 13 residues) as substrate.

NAD-dependent protein deacylase sirtuin-5, mitochondrial, sequence (Q9NXA8 whole entry, the tested form may be a part): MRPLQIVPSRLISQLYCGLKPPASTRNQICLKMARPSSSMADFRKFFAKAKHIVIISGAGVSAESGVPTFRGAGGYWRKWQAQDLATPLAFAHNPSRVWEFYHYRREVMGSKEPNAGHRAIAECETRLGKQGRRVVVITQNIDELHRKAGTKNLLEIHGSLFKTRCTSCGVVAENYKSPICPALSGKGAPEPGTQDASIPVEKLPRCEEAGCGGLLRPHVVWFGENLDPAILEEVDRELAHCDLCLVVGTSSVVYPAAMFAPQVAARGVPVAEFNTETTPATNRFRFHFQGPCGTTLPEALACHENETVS

As for `O=C(On1nnc2ccccc21)c1c[nH]c2ccccc12`, the pIC50 in experiment [1] is under 3.70; in experiment [2], under 3.70; in [3] it was 4.84; in experiment [4], under 3.70; in experiment [5], 4.66; in experiment [6], 4.13. In experiment [7], this compound had a pIC50 of 4.09. Besides, the Ratio IC50 in the experiment listed under Homo sapiens [8], in the experiment filed under Homo sapiens [9] and in the experiment filed under Homo sapiens [10] was 10 throughout. The inhibition result in experiment [11] and in experiment [12] was “Active” each time.

In the case of `O=C(On1nnc2ccccc21)c1ccc[nH]1`, the pIC50 in experiment [1] was under 3.70; in experiment [2], under 3.70; in experiment [3], 4.37; in [4], under 3.70.

In the case of `Cc1cc(C)nc(SCC(=O)Nc2ncc(Cc3cccc4ccccc34)s2)n1`, the pIC50 in experiment [1], in experiment [2] and in [4] was under 3.70 in each case.

Take `O=C(On1nnc2ccccc21)c1cc[nH]c1`: the pIC50 was under 3.70 in experiment [1], under 3.70 in [2], 4.25 in experiment [3] and under 3.70 in experiment [4].

Consider `O=C(On1nnc2ncccc21)c1c[nH]c2ccc(Br)cc12`, for which the pIC50 is under 3.70 in [1], 4.39 in [2] and 4.11 in experiment [3].

Take `Cc1ccc2[nH]cc(C(=O)On3nnc4ccccc43)c2c1`: the negative-log IC50 (pIC50) in experiment [1] is under 3.70; in [2], 4.28; in experiment [3], 4.13; in experiment [4] it was 4.07.

As a reminder, the pIC50 is −log10 of the IC50, conventionally taken in molar units. A high value points to a small IC50.
